Patent US20050025795A1, “Compounds, Compositions and methods for insect control” (The Procter & Gamble Company, priority 2003, published 2005)
Counter-ions that a name gives are not always drawn. Like-named read-outs stand apart in the source and are kept apart here. Marks after values point to notes of the source that are not given here.

How the values were obtained:
[1] = tested on: roaches; format: in vivo, cockroaches
Protocol: An ˜500 mL jar is coated at the top with a thin film of petroleum jelly and covered with a plastic petri dish as a lid. […] The filter paper is bent in half to form a ‘tent’, as shown, so the roaches are not forced to contact the filter paper. The lid is removed, and a compound or composition to be tested is added to the top of the paper, at the bend. The lid is replaced and the insects monitored for activity at 15, 30, 45 minutes, then 1, 2, 4 and 24 hours post exposure.
This is done by taking multiple testes and plotting them on a dose-response curve such as the GraphPad® Prism® computer program. This program interpolates to find the midpoint of any sigmoidal dose-response curve.
The data in Table 1 can graphed as a sigmoidal dose response, much the same as any other biological data. […] The mid-Point of the dose-response curve is given by the computer and used to compare potencies. […] It is also necessary to understand the range of the testing. While the lower limit is in the 1 to 3 microliter range, the upper limit is about 250 microliters. Adding more material than that to the filter paper will allow the substance to drip onto the glass, where contact with the insects might occur. […] Several compounds are tested in a 2 liter (L) jar rather than the 0.5 L jars which are the primary assay.

[2] = tested on: insects of the blattella species; experiment: Direct contact spray knockdown; format: in vivo
Source text: A formula is created consisting exclusively of ethylene glycol diformate. This diformate is placed in aerosol cans and pressurized with carbon dioxide as propellant. This material, when sprayed on insects of the blattella species, results in knockdown in under 30 seconds. When administered in the vapor phase according to Example 1, in a 500 milliliter jar, 15 microliters of the formula in the vapor phase kills all the insects in one hour.
Raid (#271) Roach and Ant Killer and Treatment is purchased and repeatedly tested in the assay of Example 1, and in a direct contact test. It did knowndown both the peripleneta species (17.2+/−3.2 seconds) and the blattella species (kill time 16 seconds) when directly sprayed on the insects.

[3] = 5 µL, ~500 mL jar, 6 insects in this jar

## O=COC1CCCC1 [compound 2-2, cyclopentyl formate]
[1]; ~500 mL jar
  24 hr LD50 (vapor phase): 17 microliters per 500 milliliters headspace

## C=CCc1ccc(O)c(OC)c1 [eugenol, reference compound]
[1]; ~500 mL jar
  LD50 (vapor phase): > 300 milligrams/500 milliliters

## O=COCCOC=O [ethylene glycol diformate]
[1]; 15 microliters of the formula, 500 milliliter jar, one hour
  Insects killed in the vapor phase: all
[1]; in a 500 milliliter jar
  LD50 (vapor phase): approximately 7.5 microliters
[1]; in vivo
  Relative potency within the diformate ester series (in words): most potent compound of the series
[2]
  Knockdown time when sprayed on insects: under 30 seconds

## Cc1coc2c1CC[C@@H](C)C2 [(+)-Menthofuran, (+) menthofuran]
[1]; 2 L jar
  LD50 (vapor phase) in a 2 L jar: 15 microliters per 2 L headspace
[1]; [3]
  Percent Dead Only at 4 hours: 33%*
  Percent Dead at 24 hours: 33%*
  Percent Distressed or Dead at 4 hours: 33%*
[1]; 10 µL (repeat), ~500 mL jar
  Percent Dead Only at 4 hours: 40%
  Percent Dead at 24 hours: 40%
  Percent Distressed or Dead at 4 hours: 40%
[1]; 10 µL, ~500 mL jar
  Percent Dead Only at 4 hours: 100%
  Percent Dead at 24 hours: 80%
  Percent Distressed or Dead at 4 hours: 100%
[1]; 15 µL, ~500 mL jar
  Percent Dead Only at 4 hours: 100%
  Percent Dead at 24 hours: 100%
  Percent Distressed or Dead at 4 hours: 100%
[1]; 20 µL, ~500 mL jar
  Percent Dead Only at 4 hours: 100%
  Percent Dead at 24 hours: 100%
  Percent Distressed or Dead at 4 hours: 100%
[1]; 33 µL, ~500 mL jar
  Percent Dead Only at 4 hours: 100%
  Percent Dead at 24 hours: 100%
  Percent Distressed or Dead at 4 hours: 100%
[1]; ~500 mL jar
  LD50 (vapor phase): 7.2 microliters/500 milliliters headspace

## (R) (−) carvone
[1]; individually tested at 29 milligrams/500 milliliters, 24 hrs
  Fraction of the roaches that die in 24 hrs: ⅕

## CC(C)(C)OC=O [compound 2-1, tert-butyl formate]
[1]; ~500 mL jar
  24 hr LD50 (vapor phase): 40 microliters per 500 milliliters headspace
